From US8138191B2, “Inhibitor compounds and cancer treatment methods” (Critical Outcome Technologies Inc., priority 2007, dated 2012)
One block for each compound: values may come before it.

Key:
CYP2C8 = molecular target: T1, CYP2C8 (Homo sapiens, UniProt P10632); experiment: CYP2C8 Inhibition (HLM, paclitaxel substrate)
T1 sequence (P10632 1-490): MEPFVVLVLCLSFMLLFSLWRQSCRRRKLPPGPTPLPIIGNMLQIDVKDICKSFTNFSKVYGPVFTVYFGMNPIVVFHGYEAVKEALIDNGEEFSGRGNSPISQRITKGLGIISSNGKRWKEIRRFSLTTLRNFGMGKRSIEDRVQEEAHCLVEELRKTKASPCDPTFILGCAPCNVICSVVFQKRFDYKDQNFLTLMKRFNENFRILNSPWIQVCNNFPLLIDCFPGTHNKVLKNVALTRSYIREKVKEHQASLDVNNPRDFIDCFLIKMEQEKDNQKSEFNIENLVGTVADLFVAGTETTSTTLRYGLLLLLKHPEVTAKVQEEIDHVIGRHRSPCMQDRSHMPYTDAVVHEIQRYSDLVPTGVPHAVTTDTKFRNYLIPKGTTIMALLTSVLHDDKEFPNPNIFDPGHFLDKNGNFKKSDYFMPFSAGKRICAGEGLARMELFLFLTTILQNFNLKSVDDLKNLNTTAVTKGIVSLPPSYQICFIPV

CYP2C19 = CYP2C19 (Homo sapiens, UniProt P33261); experiment: CYP2C19 Inhibition (HLM, omeprazole substrate)
CYP2C9 = CYP2C9 (Homo sapiens, UniProt P11712); experiment: CYP2C9 Inhibition (HLM, diclofenac substrate)
Chain of CYP2C9 (P11712 whole entry): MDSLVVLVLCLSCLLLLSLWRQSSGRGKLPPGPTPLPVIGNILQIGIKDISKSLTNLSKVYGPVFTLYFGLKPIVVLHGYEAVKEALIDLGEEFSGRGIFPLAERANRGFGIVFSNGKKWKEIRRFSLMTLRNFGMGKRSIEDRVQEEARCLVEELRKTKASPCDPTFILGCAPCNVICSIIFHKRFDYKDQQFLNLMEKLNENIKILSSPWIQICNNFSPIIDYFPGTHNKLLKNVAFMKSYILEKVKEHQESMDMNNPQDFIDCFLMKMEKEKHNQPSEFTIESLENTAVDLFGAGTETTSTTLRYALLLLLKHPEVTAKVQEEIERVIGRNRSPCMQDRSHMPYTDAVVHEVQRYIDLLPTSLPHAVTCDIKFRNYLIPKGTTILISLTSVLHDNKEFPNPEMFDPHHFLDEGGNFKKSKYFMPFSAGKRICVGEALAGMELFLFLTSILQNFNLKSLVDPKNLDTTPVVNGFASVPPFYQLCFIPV

Chain of CYP2C19 (P33261 whole entry): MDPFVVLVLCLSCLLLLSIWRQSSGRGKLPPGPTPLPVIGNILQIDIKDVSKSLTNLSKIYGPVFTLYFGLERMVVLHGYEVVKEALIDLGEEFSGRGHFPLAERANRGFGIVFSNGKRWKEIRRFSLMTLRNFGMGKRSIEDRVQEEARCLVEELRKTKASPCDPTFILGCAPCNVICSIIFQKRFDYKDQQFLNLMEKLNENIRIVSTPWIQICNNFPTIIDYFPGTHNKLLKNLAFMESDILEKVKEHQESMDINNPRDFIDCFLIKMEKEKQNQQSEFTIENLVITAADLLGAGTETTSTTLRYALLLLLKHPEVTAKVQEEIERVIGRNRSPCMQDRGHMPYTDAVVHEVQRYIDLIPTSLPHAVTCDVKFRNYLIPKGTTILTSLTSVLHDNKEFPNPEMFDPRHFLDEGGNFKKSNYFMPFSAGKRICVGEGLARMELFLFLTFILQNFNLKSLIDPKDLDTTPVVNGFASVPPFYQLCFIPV

nH (CYP2C8): 1.2
SMILES: COC(=O)C1=C(C)NC(C)=C(C(=O)OCCN(C)Cc2ccccc2)C1c1cccc([N+](=O)[O-])c1 (stereo not drawn) [Nicardipine]

nH (CYP2C19): 1.1
SMILES: CCN(CC)CC#CCOC(=O)C(O)(c1ccccc1)C1CCCCC1 (stereo not drawn) [Oxybutynin]

SMILES: Nc1ccc(S(=O)(=O)Nc2ccnn2-c2ccccc2)cc1 [Sulfaphenazole]
nH (CYP2C9): 1.1
